These results are taken from EPA's CvTdb concentration-time database.

Data set [1] relates to Rat. Put plainly: concentration in plasma after dosing. Conditions: dosed: Fluorotelomer alcohol 8+2, 12 mg/kg, iv, Male, F344.
In data set [2] the test system is Rat. Description: concentration in plasma after dosing. Conditions: dosed: Fluorotelomer alcohol 8+2, 12 mg/kg, iv, Male, F344. This is another data set of the same source.
The test system of data set [3] is Rat. Description: concentration in plasma after dosing. Conditions: 5 min; dosed: Fluorotelomer alcohol 8+2; 12 mg/kg; iv; Male; F344.
In data set [4] the test system is Rat. Description: concentration in kidney after dosing. The following applies: 12 h; dosed: Fluorotelomer alcohol 8+2; 80 mg/kg; oral; Female; Harlan Sprague Dawley.
In data set [5] the test system is Rat. Put plainly: concentration in plasma after dosing. Conditions: dosed: Fluorotelomer alcohol 8+2, 12 mg/kg, oral, Male, Harlan Sprague Dawley.
For data set [6], the system named is Rat. Put plainly: concentration in plasma after dosing. Conditions: 2 h; dosed: Wyeth-14643; 2.0 mg/kg; iv; Male; Sprague-Dawley.
In data set [7] the test system is Rat. Put plainly: concentration in plasma after dosing. The following applies: 1 h; dosed: Wyeth-14643; 5.0 mg/kg; oral; Male; Sprague-Dawley.
The test system of data set [8] is Rat. Description: concentration in plasma after dosing. The following applies: 2.5 min; dosed: Wyeth-14643; 2.0 mg/kg; iv; Male; Sprague-Dawley.
In data set [9] the test system is Rat. Description: concentration in plasma after dosing. The following applies: dosed: Wyeth-14643, 1.0 mg/kg, oral, Male, Sprague-Dawley.
Data set [10] relates to Rat. Description: concentration in plasma after dosing. The following applies: 10 min; dosed: Di-n-butyl phthalate; 50 mg/kg; oral; Male; Sprague-Dawley.
The subject of data set [11] is Rat. Put plainly: concentration in plasma after dosing. Conditions: 3 h; dosed: Di-n-butyl phthalate; 50 mg/kg; oral; Male; Sprague-Dawley.
Data set [12] relates to Rat. Description: concentration in plasma after dosing. The following applies: 10 h; dosed: Di-n-butyl phthalate; 100 mg/kg; oral; Male; Sprague-Dawley.
Data set [13] concerns Rat. Description: concentration in plasma after dosing. The following applies: 3 h; dosed: Di-n-butyl phthalate; 50 mg/kg; oral; Male; Sprague-Dawley. The source holds these as a separate data set.
Data set [14] deals with Rat. Description: concentration in plasma after dosing. The following applies: 20 h; dosed: Di-n-butyl phthalate; 200 mg/kg; oral; Male; Sprague-Dawley.
Data set [15] relates to Rat. Put plainly: concentration in plasma after dosing. The following applies: dosed: dichloroacetic acid, 10 mg/kg, oral, Male, Harlan Sprague Dawley.
Data set [16] has as its system Rat. Put plainly: concentration in plasma after dosing. Conditions: dosed: dichloroacetic acid, 100 mg/kg, oral, Male, F344.
In data set [17] the test system is Rat. Put plainly: concentration in plasma after dosing. The following applies: 10 min; dosed: dichloroacetic acid; 10 mg/kg; iv; Male; F344.
For data set [18], the system named is Rat. Description: concentration in plasma after dosing. The following applies: dosed: Perfluorodecanoic acid, 2 mg/kg, iv, Male, F344.
In data set [19] the test system is Rat. Description: concentration in liver after dosing. The following applies: 864 h; dosed: Perfluorodecanoic acid; 10 mg/kg; oral; Male; Harlan Sprague Dawley.
Data set [20] concerns Rat. Description: concentration in liver after dosing. The following applies: 4 h; dosed: Thiodiglycolic Acid; 20 mg/kg; iv; Female; Harlan Sprague Dawley.
Data set [21] deals with Rat. Put plainly: concentration in heart after dosing. The following applies: 1 h; dosed: Thiodiglycolic Acid; 20 mg/kg; iv; Female; Harlan Sprague Dawley.
The test system of data set [22] is Rat. Put plainly: concentration in liver after dosing. The following applies: 20 min; dosed: Thiodiglycolic Acid; 20 mg/kg; iv; Female; Harlan Sprague Dawley.
Data set [23] deals with Rat. Put plainly: concentration in thymus after dosing. The following applies: 3 h; dosed: Thiodiglycolic Acid; 20 mg/kg; iv; Female; Harlan Sprague Dawley.
Data set [24] concerns Rat. Description: concentration in plasma after dosing. Conditions: 2 h; dosed: Thiodiglycolic Acid; 20 mg/kg; iv; Female; Harlan Sprague Dawley.
Data set [25] deals with Rat. Put plainly: concentration in thymus after dosing. The following applies: 40 min; dosed: Thiodiglycolic Acid; 20 mg/kg; iv; Male; Harlan Sprague Dawley.
The subject of data set [26] is Rat. Description: concentration in liver after dosing. Conditions: 2 h; dosed: Thiodiglycolic Acid; 20 mg/kg; iv; Female; Harlan Sprague Dawley.
Data set [27] concerns Rat. Put plainly: concentration in plasma after dosing. Conditions: 30 h; dosed: Primidone; 130 mg/kg; oral; Female; F344.
Data set [28] deals with Rat. Put plainly: concentration in plasma after dosing. The following applies: 3 h; dosed: Primidone; 80 mg/kg; oral; Female; F344.
Data set [29] deals with Rat. Put plainly: concentration in plasma after dosing. Conditions: 6 h; dosed: Primidone; 130 mg/kg; oral; Female; F344.
Data set [30] relates to Rat. Description: concentration in heart after dosing. The following applies: 5 h; dosed: Bis 2-Chloroethoxy Methane; 20 mg/kg; iv; Female; F344.
Data set [31] relates to Rat. Put plainly: concentration in plasma after dosing. Conditions: 2 h; dosed: Bis 2-Chloroethoxy Methane; 20 mg/kg; iv; Female; F344.
Data set [32] deals with Rat. Put plainly: concentration in heart after dosing. Conditions: 20 min; dosed: Bis 2-Chloroethoxy Methane; 20 mg/kg; iv; Female; F344.
The subject of data set [33] is Rat. Description: concentration in liver after dosing. The following applies: 10 min; dosed: Bis 2-Chloroethoxy Methane; 20 mg/kg; iv; Male; F344.
The subject of data set [34] is Rat. Put plainly: concentration in thymus after dosing. The following applies: 40 min; dosed: Bis 2-Chloroethoxy Methane; 20 mg/kg; iv; Male; F344.
The test system of data set [35] is Rat. Description: concentration in heart after dosing. The following applies: 2 h; dosed: Bis 2-Chloroethoxy Methane; 20 mg/kg; iv; Female; F344.
The test system of data set [36] is Rat. Put plainly: concentration in plasma after dosing. The following applies: 3 h; dosed: Bis 2-Chloroethoxy Methane; 40 mg/kg; iv; Male; Harlan Sprague Dawley.
In data set [37] the test system is Rat. Description: concentration in heart after dosing. The following applies: 3 h; dosed: Bis 2-Chloroethoxy Methane; 20 mg/kg; iv; Male; F344.
Data set [38] deals with Rat. Description: concentration in heart after dosing. The following applies: 40 min; dosed: Bis 2-Chloroethoxy Methane; 20 mg/kg; iv; Female; F344.
For data set [39], the system named is Rat. Put plainly: concentration in thymus after dosing. Conditions: 5 h; dosed: Bis 2-Chloroethoxy Methane; 20 mg/kg; iv; Female; F344.

For `OCCC(F)(F)C(F)(F)C(F)(F)C(F)(F)C(F)(F)C(F)(F)C(F)(F)C(F)(F)F` [Fluorotelomer alcohol 8+2], the concentration in plasma in the data set with Rat [1] (0.75 h) came to 756 ng/mL; with Rat [1] (12 h), 13.3 ng/mL; in the data set with Rat [2] (0.25 h), 1430 ng/mL; in the data set on Rat [2] (24 h) it was 10.2 ng/mL; with Rat [3] it was 24300 ng/mL; in the data set on Rat [5] (0.25 h), 183 ng/mL. Also, the concentration in plasma with Rat [5] (6 h) turned out to be 27.9 ng/mL. Moreover, the concentration in kidney with Rat [4] came to 351 ng/g.
Consider `Cc1cccc(Nc2cc(Cl)nc(SCC(=O)O)n2)c1C`, for which the concentration in plasma in the data set on Rat [6] was found to be 0.67 µg/mL; in the data set on Rat [7] it was 5.44 µg/mL; in the data set on Rat [8], 29.3 µg/mL; in the data set on Rat [9] (2 h), 0.709 µg/mL; in the data set with Rat [9] (8 h), 0.189 µg/mL.
Regarding `CCCCOC(=O)c1ccccc1C(=O)O` [Mono-n-butyl phthalate], the concentration in plasma in the data set with Rat [10] stood at 8.11 µg/mL; in the data set on Rat [11], 1.18 µg/mL; in the data set with Rat [12], 1.17 µg/mL; in the data set on Rat [13] it was 3.05 µg/mL; with Rat [14] it was 1.87 µg/mL.
With `O=C(O)C(Cl)Cl` [dichloroacetic acid], the concentration in plasma in the data set with Rat [15] (5 min) came out at 0.621 µg/mL; in the data set with Rat [15] (40 min), 0.137 µg/mL; in the data set with Rat [16] (0.25 h), 13.3 µg/mL; with Rat [16] (6 h), 32.8 µg/mL; with Rat [17], 7.78 µg/mL.
Consider `O=C(O)C(F)(F)C(F)(F)C(F)(F)C(F)(F)C(F)(F)C(F)(F)C(F)(F)C(F)(F)C(F)(F)F` [Perfluorodecanoic acid], for which the concentration in plasma in the data set with Rat [18] (12 h) came out at 4670 ng/mL; in the data set on Rat [18] (1200 h) it was 1400 ng/mL. Moreover, in the data set with Rat [19], the concentration in liver worked out at 54300 ng/g.
As to `O=C(O)CSCC(=O)O` [Thiodiglycolic Acid], the concentration in liver with Rat [20] is 3490 ng/g; in the data set with Rat [22] it was 91400 ng/g; with Rat [26] it was 39600 ng/g. The compound further gave a concentration in heart with Rat [21] of 1530 ng/g. The concentration in thymus in the data set on Rat [23] was 1030 ng/g; with Rat [25], 3410 ng/g. In the data set with Rat [24], this compound came in with a concentration in plasma of 1400 ng/mL.
In the case of `CCC1(c2ccccc2)C(=O)NC(=O)NC1=O` [Phenobarbital], the concentration in plasma with Rat [27] came out at 2.12 µg/mL; in the data set with Rat [28] it was 1 µg/mL; in the data set on Rat [29], 2.33 µg/mL.
Consider `ClCCOCOCCCl` [Bis 2-Chloroethoxy Methane], for which the concentration in heart with Rat [30] was 27.4 ng/g; with Rat [32], 6490 ng/g; in the data set on Rat [35], 401 ng/g; in the data set on Rat [37], 179 ng/g; in the data set with Rat [38], 5350 ng/g. Moreover, the results for the concentration in plasma with Rat [31] and in the data set with Rat [36] were 188 ng/mL and 287 ng/mL, respectively. In the data set on Rat [33], this compound displayed a concentration in liver of 5360 ng/g. Moreover, the concentration in thymus in the data set on Rat [34] was determined as 8210 ng/g; in the data set on Rat [39] it was 79.1 ng/g.
